Measurements as given in patent US4018925A, “Method of arresting bacterial growth with certain selected dichloro-2,2,5,5-tetrasubstituted-3-6-piperazinediones” (Interx Research Corporation, priority 1975, dated 1977).

Experiments:
[1] = Stability of N-chloramines in aqueous solution (half-life, iodometric and/or spectrophotometric); type: physicochemical; settings: for half-life: temperature 40
Experimental: The stability of the compound, 1,4-dichloro-2,2,5,5-tetramethyl-3,6-piperazinedione in aqueous solution was determined by (1) following the disappearance of the positive chlorine concentration of the N-Chloramine solution iodometrically and/or (2) following the decrease in the absorbance at the maximum wavelength spectrophotometrically.
The data obtained was interpreted in terms of a first order kinetic process and the half-life of said compound was reported in units of time at the condition under which they were determined.

Staph. aureus = test: Antibacterial activity: time required for complete sterilization (modified serial dilution method); type: cell-based, Staph. aureus ATCC 6538
Source text: (§1) The procedure to determine the antibacterial activity of 1,4-dichloro-2,2,5,5-tetramethyl-3,6-piperazinedione was based primarily on a modification of the serial dilution method of analysis. However, instead of determining the minimum inhibitory concentration parameters for the compound investigated, applicants alternatively chose to determine the bactericidal endpoint for a given concentration of the compound investigated. Consequently, applicants studies were established to determine the time required for complete sterilization of the micro-organism tested, when exposed to a given concentration of the compound investigated.
(§2) Nutrient Broth B.B.L. -- 8g/1000 ml. distilled water. The broth contains 5g. gelysate peptone and 3g. beef extract. The solution has a pH of 6.9.
(§3) Nutrient Agar -- 23g/1000 ml. distilled water. The nutrient contains 5g. gelysate peptone, 3g. beef extract and 15g. agar.
(§4) Horse Serum T.C. -- 10% horse serum solution in distilled water. The serum solution was freshly prepared and adjusted to a pH of 7 using carbon dioxide prior to its use.
(§5) A stock solution of the isolated compound (1,4,dichloro-2,2,5,5-tetramethyl-3,6-piperazinedione) was prepared using an appropriate buffered solution.
(§6) For screening in the absence of a denaturing agent (e.g., horse serum) an equal volume of distilled water and the resulting solution was subjected to the screen.
(§7) For screening in the presence of a denaturing agent, a volume of the stock solution was diluted using an equal volume of 10% horse serum. When necessary, the final solution was adjusted to the desired pH using 1N HCL and the solution was permitted to stand at room temperature for thirty minutes prior to the screening procedure.
(§8) To 5 ml. of the stock solution being evaluated, there was added 0.2 ml. of an overnight broth culture containing the particular micro-organism being investigated (see above). At time intervals of 0.5, 1, 2, 3, 4, 5, . . . minutes, a loop of this suspension was subcultured into 5 ml. of a sterile nutrient broth. All the samples were then incubated at 37° C for seven days with daily observation for evidence of bacterial growth. The time interval reported is for that sample in which no bacterial growth was observed after the incubation period.
(§9) To 5 ml. of a sterile 0.9% sodium chloride solution, there was added 0.2 ml. of an overnight broth culture containing the particular micro-organismbeing investigated. A loop of this suspension was subcultured into 5 ml. of a sterile nutrient broth and incubated at 37° C for seven days.
(§10) To 5 ml of a sterile nutrient broth, there was added a loop of the 1,4-dichloro-2,2,5,5-tetramethyl-3,6-piperazinedione solution and the solution was mixed immediately. To this solution, there was then added a loop of an overnight broth culture which was diluted 25x with a 0.9% sodium chloride solution. Incubation was carried out for seven days at a temperature of 37° C.
(§11) At the same time intervals used for subculturing the test solution into nutrient broth during the screening procedure, a loop of the test solution was also subcultured onto sterile nutrient agar plates. This technique was useful for observing the characteristic colonial morphology of each organism.
(§12) The entire screening procedure was conducted for each buffered solution using the buffered solution rather than the 1,4-dichloro-2,2,5,5-tetramethyl-3,6-piperazinedione solution in the procedure.

Pseud. aeruginosa = test: as above; type: cell-based, Pseud. aeruginosa ATCC 9027
Source text: as §1, §2, §3, §4, §5, §6, §7, §8, §9, §10, §11, §12

E. coli = test: as above; type: cell-based, E. coli ATCC 10536
Source text: as §1, §2, §3, §4, §5, §6, §7, §8, §9, §10, §11, §12

Bord. bronchiseptica = test: as above; type: cell-based, Bord. bronchiseptica ATCC 4617
Source text: as §1, §2, §3, §4, §5, §6, §7, §8, §9, §10, §11, §12

Kleb. pneumoniae = test: as above; type: cell-based, Kleb. pneumoniae ATCC 10031
Source text: as §1, §2, §3, §4, §5, §6, §7, §8, §9, §10, §11, §12

Staph. epidermidis = test: as above; type: cell-based, Staph. epidermidis ATCC 12228
Source text: as §1, §2, §3, §4, §5, §6, §7, §8, §9, §10, §11, §12

[2] = 0.1M Na2B4O7 pH8.8, diluent H2O, 0.62 × 10^-3 M (146PPM), positive Cl 43 PPM
[3] = 0.1M NaH2PO4, diluent H2O, 0.52 × 10^-3 M, positive Cl 36 PPM
[4] = 0.1M NaH2PO4 pH7.0, diluent serum (10% horse serum), 0.52 × 10^-3 M (126PPM), positive Cl 36 PPM
[5] = 0.1M NaOAc pH 4.6, diluent H2O, 0.59 × 10^-3 M (139 PPM), positive Cl 41 PPM
[6] = 0.1M NaOAc pH 4.6, diluent serum (10% horse serum), 0.59 × 10^-3 M (139 PPM), positive Cl 41 PPM

Compound: O=C1CN(Cl)C(=O)CN1Cl [1,4-dichloro-2,5-piperazinedione, reference compound]
- half-life ([1]; 0.1M Na2B4O7 pH 9.3): 0.717 h
- half-life ([1]; 0.1M NaH2PO4 pH 7.0): 0.883 h
- half-life ([1]; 0.1M NaOAc pH 4.6): 15.5 h

Compound: CC1(C)C(=O)N(Cl)C(C)(C)C(=O)N1Cl [1,4-dichloro-2,2,5,5-tetramethyl-3,6-piperazinedione]
- Antibacterial activity time, 6538 (Staph. aureus; [2]): 4 min
- Antibacterial activity time, 6538 (Staph. aureus; [3]): 4 min
- Antibacterial activity time, 6538 (Staph. aureus; [4]): > 15 min
- Antibacterial activity time, 6538 (Staph. aureus; [5]): 3 min
- Antibacterial activity time, 6538 (Staph. aureus; [6]): > 15 min
- Antibacterial activity time, 9027 (Pseud. aeruginosa; [2]): 4 min
- Antibacterial activity time, 9027 (Pseud. aeruginosa; [3]): 5 min
- Antibacterial activity time, 9027 (Pseud. aeruginosa; [4]): > 15 min
- Antibacterial activity time, 9027 (Pseud. aeruginosa; [5]): 3 min
- Antibacterial activity time, 9027 (Pseud. aeruginosa; [6]): > 10 min
- Antibacterial activity time, 10536 (E. coli; [2]): 1 min
- Antibacterial activity time, 10536 (E. coli; [3]): 1 min
- Antibacterial activity time, 10536 (E. coli; [4]): > 15 min
- Antibacterial activity time, 10536 (E. coli; [5]): 1 min
- Antibacterial activity time, 10536 (E. coli; [6]): > 10 min
- Antibacterial activity time, 4617 (Bord. bronchiseptica; [2]): 4 min
- Antibacterial activity time, 4617 (Bord. bronchiseptica; [3]): 3 min
- Antibacterial activity time, 4617 (Bord. bronchiseptica; [4]): > 15 min
- Antibacterial activity time, 4617 (Bord. bronchiseptica; [5]): 1 min
- Antibacterial activity time, 4617 (Bord. bronchiseptica; [6]): > 10 min
- half-life ([1]; 0.1M Na2B4O7 pH 9.3): 38 h
- half-life ([1]; 0.1M NaH2PO4 pH 7.0): 332 h
- half-life ([1]; 0.1M NaOAc pH 4.6): 3070 h
- Stability (half-life) compared with 1,4-dichloro-2,5-piperazinedione ([1]; same pH (4.6, 7.0 and 9.3)): far greater stability (half-life)
- Antibacterial activity time, 10031 (Kleb. pneumoniae; [2]): 4 min
- Antibacterial activity time, 10031 (Kleb. pneumoniae; [3]): 4 min
- Antibacterial activity time, 10031 (Kleb. pneumoniae; [4]): > 15 min
- Antibacterial activity time, 10031 (Kleb. pneumoniae; [5]): 2 min
- Antibacterial activity time, 10031 (Kleb. pneumoniae; [6]): > 10 min
- Antibacterial activity time, 12228 (Staph. epidermidis; [2]): 2 min
- Antibacterial activity time, 12228 (Staph. epidermidis; [3]): 2 min
- Antibacterial activity time, 12228 (Staph. epidermidis; [4]): > 15 min
- Antibacterial activity time, 12228 (Staph. epidermidis; [5]): 2 min
- Antibacterial activity time, 12228 (Staph. epidermidis; [6]): > 15 min
